Test results taken from publication PMC4907692, “Engineering vanilloid-sensitivity into the rat TRPV2 channel” (eLife, 2016).

What was measured:
TRPV2 QM = target: T1, TRPV2 QM (Rattus norvegicus, UniProt Q9WUD2, F472S/L507M/L510T/Q530E); experiment: Two-electrode voltage-clamp in Xenopus oocytes, TRPV2 QM; type: cell-based; conditions: 100 nM RTx
T1 construct: expressed in transfected cells; host or cells: Xenopus oocytes (cRNA injection)
T1 sequence (Q9WUD2 1-761 F472S/L507M/L510T/Q530E): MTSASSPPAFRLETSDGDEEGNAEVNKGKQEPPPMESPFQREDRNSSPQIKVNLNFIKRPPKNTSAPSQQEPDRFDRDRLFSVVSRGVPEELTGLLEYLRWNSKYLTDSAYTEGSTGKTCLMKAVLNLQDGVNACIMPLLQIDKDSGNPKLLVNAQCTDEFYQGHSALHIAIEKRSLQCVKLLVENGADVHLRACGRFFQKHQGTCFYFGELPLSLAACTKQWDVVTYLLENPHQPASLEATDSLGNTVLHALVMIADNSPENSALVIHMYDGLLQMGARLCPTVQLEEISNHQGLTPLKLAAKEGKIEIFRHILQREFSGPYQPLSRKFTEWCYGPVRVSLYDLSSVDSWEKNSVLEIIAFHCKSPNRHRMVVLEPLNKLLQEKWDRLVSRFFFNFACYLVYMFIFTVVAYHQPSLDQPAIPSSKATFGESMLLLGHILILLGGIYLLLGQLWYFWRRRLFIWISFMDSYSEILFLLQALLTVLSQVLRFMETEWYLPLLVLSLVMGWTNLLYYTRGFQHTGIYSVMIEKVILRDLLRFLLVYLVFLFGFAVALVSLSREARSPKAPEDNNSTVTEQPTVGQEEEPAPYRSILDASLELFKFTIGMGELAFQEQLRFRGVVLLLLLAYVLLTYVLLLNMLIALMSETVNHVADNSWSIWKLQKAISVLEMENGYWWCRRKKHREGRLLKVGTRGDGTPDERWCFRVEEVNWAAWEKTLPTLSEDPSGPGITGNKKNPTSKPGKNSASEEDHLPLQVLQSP
Excerpt: (§1) To further investigate the putative vanilloid binding pocket in TRPV1, we inspected the cryo-EM structure of TRPV1, looking for residues that are located nearby to the putative RTx density (Figure 1B; regions/residues highlighted in yellow) and that differ between TRPV1 and TRPV2 channels (Figure 3—figure supplement 1; regions highlighted in magenta). […] To quantify the contribution of each of these residues to TRPV1 channel activation by RTx under our experimental conditions, we mutated each to the corresponding residue in TRPV2. We then expressed each construct in oocytes and used the two electrode voltage-clamp technique to study activation by RTx and by the non-specific TRPV channel activator 2-APB. We recorded time courses for channel activation by each agonist while stepping the membrane potential from −60 to +60 mV every 3 s from a holding potential of 0 mV using an external recording solution containing 100 mM KCl (internal K^+ concentration in a healthy oocyte is 100 mM) (Figure 3A, left). We also recorded current-voltage (I-V) relations by stepping over a wider range of voltages in the absence and presence of activators, or in the presence of ruthenium red (RR), a non-specific inhibitor of TRP channels (Figure 3A, right). […]

TRPV2 F472S/L507M = target: T2, TRPV2 F472S/L507M (Rattus norvegicus, UniProt Q9WUD2, F472S/L507M); experiment: Two-electrode voltage-clamp in Xenopus oocytes, TRPV2 F472S/L507M; type: cell-based; conditions: 100 nM RTx
T2 construct: expressed in transfected cells; host or cells: Xenopus oocytes (cRNA injection)
Excerpt: as §1

T2 sequence (Q9WUD2 whole entry F472S/L507M): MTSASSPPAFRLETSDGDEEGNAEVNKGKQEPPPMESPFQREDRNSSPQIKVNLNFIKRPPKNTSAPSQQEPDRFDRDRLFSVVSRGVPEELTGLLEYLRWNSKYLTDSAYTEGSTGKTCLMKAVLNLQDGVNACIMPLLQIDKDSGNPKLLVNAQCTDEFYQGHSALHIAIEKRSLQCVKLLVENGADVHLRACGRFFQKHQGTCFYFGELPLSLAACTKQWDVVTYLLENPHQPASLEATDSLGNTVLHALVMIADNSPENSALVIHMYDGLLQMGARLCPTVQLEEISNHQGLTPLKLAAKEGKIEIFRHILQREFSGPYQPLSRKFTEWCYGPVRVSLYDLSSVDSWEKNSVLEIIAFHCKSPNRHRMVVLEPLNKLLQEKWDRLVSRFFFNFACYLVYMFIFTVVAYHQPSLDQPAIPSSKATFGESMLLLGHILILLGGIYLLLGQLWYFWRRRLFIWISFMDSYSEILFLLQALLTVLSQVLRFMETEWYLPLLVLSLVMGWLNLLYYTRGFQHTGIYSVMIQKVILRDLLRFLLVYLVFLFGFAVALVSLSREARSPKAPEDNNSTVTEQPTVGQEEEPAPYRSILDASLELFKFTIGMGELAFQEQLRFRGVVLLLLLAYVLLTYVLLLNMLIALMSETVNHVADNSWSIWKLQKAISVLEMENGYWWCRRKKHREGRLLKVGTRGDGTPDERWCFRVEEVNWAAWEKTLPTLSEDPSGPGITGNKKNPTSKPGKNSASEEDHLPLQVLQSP

SMILES: C=C(C)[C@]12C[C@@H](C)[C@@]34O[C@](Cc5ccccc5)(O[C@@H]1[C@@H]3C=C(COC(=O)Cc1ccc(O)c(OC)c1)C[C@]1(O)C(=O)C(C)=C[C@@H]41)O2 [RTx, resiniferatoxin]
- channel activation by RTx (TRPV2 QM): robustly activated
- channel activation by RTx (TRPV2 F472S/L507M): sensitive to RTx
